# Patent US9580465B2, “Tissue protective peptides and peptide analogs for preventing and treating diseases and disorders associated with tissue damage” (ARAIM PHARMACEUTICALS, INC., priority 2008, dated 2017)
# Values joined by “and” are separate entries in the source; they are usually repeats but may differ in a detail not shown here. Equal values may be shown once. “Also recorded” adds a separate entry of the source. Square brackets hold non-standard residues; d marks the D form. pGlu = O=C1CC[C@@H](C(=O)O)N1
# Key:
# [1] = tested on: full-thickness skin wounds; test: Full thickness punch biopsy model of wound healing; type: in vivo, Sprauge-Dawley rats; settings: 24 nmol/kg of bw s.c. daily for 10 days; FIG. 8
# Protocol: A full thickness punch biopsy model of wound healing was used to evaluate Peptide ID. In this experiment, 3.5 mm-diameter full-thickness skin wounds were placed at the corners of a 3 cm-wide square on the shaved and depilated scapular region of Sprauge-Dawley rats. Peptide ID (24 nmol/kg of bw, 9 rats) or PBS (9 rats) was administered subcutaneously daily for 10 days.
# [2] = tested on: histamine; test: Histamine induced wheal formation, peptide given at time of challenge; type: in vivo, Sprague-Dawley rats; settings: 30 μg/kg at time of histamine challenge
# Protocol: Under isoflurane anesthesia, 12 Sprague-Dawley rats' abdomens were shaved and depilated. Each rat was then injected intravenously (via internal jugular) with a dilute solution of Evans Blue (30 mg/ml in saline, 1 ml/kg bw). After 5 minutes, 6 small doses of histamine (Histamine diphosphate, 20 microliters administered intradermally) in a rectangular pattern on each rat's abdomen. After fifteen minutes, when the wheal reaches its maximum size the wheal is photographed and the blister area was determined by digital planimetry. To test the efficacy of various peptides, the peptide of interest was administered to the rats intravenously shortly after the histamine injection.
# Rats received either saline, Peptide IY (30 μg/kg), Peptide ID (30 μg/kg), or Peptide IW (30 μg/kg) at time of histamine challenge.
# Rats received either saline, peptide JA (30 μg/kg), peptide IZ (30 μg/kg), peptide IW (30 μg/kg) or peptide ID (30 μg/kg) at time of histamine challenge.
# [3] = tested on: histamine; test: Histamine induced wheal formation, persistence after single dose; type: in vivo, rats; settings: FIG. 16
# Protocol: The ability of Peptide ID to reduce plasma extravasation (wheal) induced by intradermal histamine administration was evaluated in rats. Animals were pre-administered Evans Blue dye (which binds tightly to albumin) to provide a visual marker of vascular leak. To determine the persistence of peptide IG activity, at various time periods after Peptide ID administration (30 μg/kg, administered intravenously), an intradermal dose of 0.12 μg histamine was administered, and the extent of dye leak quantitated by planimetry performed on digital photographs obtained 15 minutes following histamine placement, a time at which wheal surface area is greatest. Each animal was tested at only a single time point to avoid influence of histamine administration on subsequent responses.
# [4] = Erythropoietic and hematopoietic effects, 28 days i.v. in rabbits; type: in vivo, New Zealand White rabbits; settings: 30, 90, 300 μg/kg per dose i.v. twice daily for 28 days, baseline vs. day 29
# Protocol: Further the erythropoietic and hematopoietic affects of Peptide ID were evaluated in rabbits. Blood samples were taken of all rabbits prior to the initiation of the study to establish the hematological baseline for the animals. Peptide ID was administered twice daily i.v. to New Zealand White rabbits for 28 days. For this study, six males and females were assigned to groups 1 and 4, and four males and four females were assigned to groups 2 and 3. Group 1 received 0, group 2 received 30 μg (24 nmol/kg bw), group 3 received 90 μg/kg (72 nmol/kg bw); and group 4 received 300 μg/kg (240 nmol/kg bw) per dose Peptide ID in PBS by bolus i.v. administration. Blood samples to assay for hematological variables were collected on day 29.
sequence,measurement,setting,value
"UEQLERALNSS ([pGlu]EQLERALNSS-OH; also: acetate/ammonium mixed salt) [Peptide ID, first glutamine replaced with pyroglutamate]",area of open wound over treatment,[1],faster healing; also recorded: healed more rapidly
same,wheal area (lesion area),[2]; FIG. 18,about 0.35 cm^2
same,wheal area (lesion area),[2]; FIG. 19,~0.35 cm^2 and 0.4 cm^2
same,persistence of the suppressive effect on wheal formation,[3]; following a single dose of 30 μg/kg intravenously,up to 24 hours
same,wheal formation (plasma extravasation),[3]; single dose 30 μg/kg intravenously before 0.12 μg intradermal histamine,suppress wheal formation
same,hemoglobin concentration,[4]; FIG. 3A,no difference; also recorded: no effect
same,hematocrit,[4]; FIG. 3B,no difference; also recorded: no effect
same,platelet count,[4]; FIG. 3C,no difference; also recorded: no effect
